Assays:
[1] = Polymorph screen solvent systems: solubility noted when preparing saturated solutions; format: physicochemical; settings: solvent system: water
Protocol: A saturated solution of Compound 1, Form XX was made by preparing 1 mL slurries using acetonitrile (ACN), ACN-water (75:25), methylethyl ketone (MEK), or MEK-water (99:1, 90:10, or 80:20) in vials. After 24 hours in capped HPLC vials, the slurries were then filtered to remove residual solids. Approximately 2 additional milligrams of Compound 1 was added to each vial containing a saturated solution. Next, the vials were heated to 70° C. with stirring until all of the material was completely dissolved. Immediately after, the samples were submerged into an ice bath. The product, which precipitated as a white powder within 1 minute, was isolated by filtration and analyzed by XRPD and TGA.
A saturated solution was made by slurrying Compound 1, Form XX in 5 mL of solvent (ACN, isopropyl acetate (IPAc), or MEK) or 1 mL of solvent for the MEK/Water solvent system. After 24 hours, the residual solids were removed by filtration. The saturated solutions were then subjected to rapid solvent evaporation by blowing nitrogen (N2) gas over the samples with a Pierce Model 18780 Reacti-Vap evaporating unit for four hours. The product precipitated as a white powder and the form was analyzed by XRPD and TGA.
A saturated solution of Compound 1, Form XX was made by slurrying either in 5 mL of solvent in the ACN, IPAc, and MEK solvent systems, 2 mL total solvent for IPAc/water, or 1 mL total solvent for the MEK/water solvent systems. After 24 hours, the residual solids were removed by filtration. 20 mL of antisolvent was then quickly added to the saturated solutions to induce precipitation. Hexane was used as the antisolvent in the MEK and IPAc solvent systems, and MTBE was used as the antisolvent in the ACN solvent systems, as a consequence of the immiscibility between ACN and hexane. The product precipitated as a white powder and the form was analyzed by XRPD and TGA.

[2] = Desolvation: standing open under ambient conditions or in vacuum oven, form checked by XRPD; format: physicochemical
Protocol: A polymorph screen was conducted in the methylethyl ketone (MEK)/water solvent systems, as well as in the acetonitrile (ACN), ACN/water and isopropyl acetate solvent systems. Polymorph screening techniques included crash cooling, solvent evaporation, antisolvent addition, and slurry experiments. Slurry experiments were performed on an IKA RCT hot plate with magnetic stirring set to 710 rpm. The temperature was controlled with an IKA ETS-D5 thermocouple. Solvent volumes were measured and transferred with Gibson Pipetteman volumetric pipettes. New forms that were identified as solvates were subjected to desolvation under two potential conditions: (1) drying in a vacuum oven at 40° C. and (2) sitting undisturbed under ambient conditions in a fume hood. Physical characterization of all forms proceeded by X-ray powder diffraction (XRPD) and thermogravimetric analysis (TGA).
New forms of Compound 1 obtained in the polymorph screen suspected of being solvates were subjected to further form investigation through attempted desolvation. Forms D, E, F, G, H, I, J, K, L and Hydrate A were left to stand open to the atmosphere under ambient conditions and or were placed in a vacuum oven.

With `CC(C)(C)c1cc(C(C)(C)C)c(NC(=O)c2c[nH]c3ccccc3c2=O)cc1O` [Compound 1, Form XX, N-[2,4-bis(1,1-dimethylethyl)-5-hydroxyphenyl]-1,4-dihydro-4-oxoquinoline-3-carboxamide] the “Solubility in solvent system (antisolvent addition results)” value [1] was “not soluble”, the “Solubility in solvent system (crash cooling results)” value [1] was “not soluble” and the “Solubility in solvent system (solvent evaporation results)” value [1] was “not soluble”.
In the case of `CC(C)(C)c1cc(C(C)(C)C)c(NC(=O)c2c[nH]c3ccccc3c2=O)cc1O` [Form D, N-[2,4-bis(1,1-dimethylethyl)-5-hydroxyphenyl]-1,4-dihydro-4-oxoquinoline-3-carboxamide], the “Solid form after desolvation attempt” value ([2]; ambient conditions and vacuum oven for approximately 1 month) is reported as “converted to a new crystalline form of Compound 1 designated Form R”.
For `CC(C)(C)c1cc(C(C)(C)C)c(NC(=O)c2c[nH]c3ccccc3c2=O)cc1O` [Form E, N-[2,4-bis(1,1-dimethylethyl)-5-hydroxyphenyl]-1,4-dihydro-4-oxoquinoline-3-carboxamide], the “XRPD pattern after desolvation attempt” value ([2]; after standing under ambient conditions and after sitting in the vacuum oven) was “same XRPD patterns”.
For `CC(C)(C)c1cc(C(C)(C)C)c(NC(=O)c2c[nH]c3ccccc3c2=O)cc1O` [Form G, N-[2,4-bis(1,1-dimethylethyl)-5-hydroxyphenyl]-1,4-dihydro-4-oxoquinoline-3-carboxamide], the “Solid form after desolvation attempt” value ([2]; vacuum oven for one month) was “became x-ray amorphous”.
For `CC(C)(C)c1cc(C(C)(C)C)c(NC(=O)c2c[nH]c3ccccc3c2=O)cc1O` [Form H, N-[2,4-bis(1,1-dimethylethyl)-5-hydroxyphenyl]-1,4-dihydro-4-oxoquinoline-3-carboxamide], the “Solid form after desolvation attempt” value ([2]; ambient conditions for one month) was “same Form H pattern” and the “Solid form after desolvation attempt” value ([2]; vacuum oven for one month) was “converted to a semi-crystalline form”.
In the case of `CC(C)(C)c1cc(C(C)(C)C)c(NC(=O)c2c[nH]c3ccccc3c2=O)cc1O` [Form K, N-[2,4-bis(1,1-dimethylethyl)-5-hydroxyphenyl]-1,4-dihydro-4-oxoquinoline-3-carboxamide], the “Solid form after desolvation attempt” value ([2]; ambient conditions and vacuum oven for 2 months) is reported as “converted to a new crystalline form of Compound 1 designated Form S”.
With `CC(C)(C)c1cc(C(C)(C)C)c(NC(=O)c2c[nH]c3ccccc3c2=O)cc1O` [Form L, N-[2,4-bis(1,1-dimethylethyl)-5-hydroxyphenyl]-1,4-dihydro-4-oxoquinoline-3-carboxamide] the “Solid form after desolvation attempt” value ([2]; ambient conditions for two weeks) was “same Form L pattern” and the “Solid form after desolvation attempt” value ([2]; vacuum oven for 24 hours) was “converted to x-ray amorphous”.
